Results as given in US11690850B2, “Inhibitors of receptor interacting protein kinase I for the treatment of disease” (Board of Regents, The University of Texas System, priority 2019, dated 2023).

The compounds below were run on human monocytic cell line U937 (assay: Human U937 Cellular Necroptosis Assay). Conditions: U-937; U937 cells stimulated with 25 ng/mL human TNFalpha and 25 μM z-VAD-FMK, 22 hr, viability by Cell Titer-Glo 2.0; average value across multiple runs; read-out: hU937 IC50.
Format: cell-based
Method: Human U937 Cellular Necroptosis Assay
The human monocytic cell line U937 (CRL-1593.2) was purchased from ATCC. The cells were routinely maintained in RPMI-1640 Medium (Gibco, Catalog #11875-093) supplemented with 10% heat inactivated fetal bovine serum (Gibco, Catalog #16140-071), 100 units/mL penicillin and 100 μg/mL streptomycin (Gibco, Catalog #15140-122), in a humidified incubator (37° C., 5% CO2). For the assay, cells were resuspended in RPMI-1640 phenol red free Media (Gibco, Catalog #11835-030) supplemented with 10% fetal bovine serum (Sigma, Catalog #F2442), 100 units/mL penicillin and 100 ug/mL streptomycin. Cells were stimulated with 25 ng/mL human TNFalpha (Cell Sciences, Catalog #CSI15659B) and 25 μM z-VAD-FMK (R&D Systems, Catalog #FMK001) followed by seeding 5000 cells per well in a volume of 40 μL to a white, CulturPlate-384 (Perkin Elmer, Catalog #6007680). Stock solutions of the test compounds were prepared in 100% DMSO (Sigma, Catalog #D2650) and serially diluted 1:3 using 100% DMSO. Compounds were additionally diluted 1:40 in assay medium, and 10 μL/well was transferred to the plate. Following the compound addition the plate was incubated at 37° C. and 5% CO2 for 22 hr. After 22 hr, viability was assessed with the addition of 20 μL of Cell Titer-Glo 2.0 (Promega, Catalog #G9243). The tissue culture plate was shaken on an orbital shaker at 300 RPM for 15 minutes at room temperature in the dark. Luminescence was measured using a PerkinElmer Envision™ plate reader. IC50 values were calculated using a four-parameter logistic curve fit using Genedata Screener software. Results are shown below in Table 5, where the average value across multiple runs is given.

Structure (SMILES) | IC50
Cc1cc(=O)c(C(=O)N[C@@H]2C(=O)N(C)c3ncccc3O[C@@H]2C)nn1-c1ccccc1 [Example 78, N-((2R,3S)-2,5-dimethyl-4-oxo-2,3,4,5-tetrahydropyrido[3,2-b]-[1,4]oxazepin-3-yl)-6-methyl-4-oxo-1-phenyl-1,4-dihydropyridazine-3-carboxamide] | 150 nM
COc1cc2c(cn1)N(C)C(=O)C(NC(=O)c1nn(-c3ccccc3)c(C)cc1=O)CC2 (centres unmarked) [Example 81, N-(7-methoxy-1-methyl-2-oxo-2,3,4,5-tetrahydro-1H-pyrido[3,4-b]azepin-3-yl)-6-methyl-4-oxo-1-phenyl-1,4-dihydropyridazine-3-carboxamide] | 788 nM
Cc1ccc(-n2nc(C(=O)N[C@H]3COc4cccnc4N(C)C3=O)c(=O)cc2C)cc1 [Example 77, (S)-6-methyl-N-(5-methyl-4-oxo-2,3,4,5-tetrahydropyrido[3,2-b][1,4]oxazepin-3-yl)-4-oxo-1-(p-tolyl)-1,4-dihydro-pyridazine-3-carboxamide] | 26.5 nM
Cc1cc(=O)c(C(=O)NC2CCc3ccccc3NC2=O)nn1-c1cncc(F)c1 (centres unmarked) [Example 79, 1-(5-fluoropyridin-3-yl)-6-methyl-4-oxo-N-(2-oxo-2,3,4,5-tetrahydro-1H-benzo[b]azepin-3-yl)-1,4-dihydropyridazine-3-carboxamide] | 507 nM
Cc1ccc(-n2nc(C(=O)N[C@H]3COc4cccnc4N(C)C3=O)c(=O)c(Cl)c2C)cc1F [Example 82, (S)-5-chloro-1-(3-fluoro-4-methyl-phenyl)-6-methyl-N-(5-methyl-4-oxo-2,3,4,5-tetrahydropyrido[3,2-b]-[1,4]oxazepin-3-yl)-4-oxo-1,4-dihydropyridazine-3-carboxamide] | 56.4 nM
Cc1cc(=O)c(C(=O)N[C@H]2COc3cccnc3NC2=O)nn1-c1ccccc1 [Example 63, (S)-6-methyl-4-oxo-N-(4-oxo-2,3,4,5-tetrahydropyrido[3,2-b][1,4]oxazepin-3-yl)-1-phenyl-1,4-dihydropyridazine-3-carboxamide] | 479 nM
CCN1C(=O)[C@@H](NC(=O)c2nn(-c3ccccc3)c(C)cc2=O)COc2cccnc21 [Example 76, (S)-N-(5-ethyl-4-oxo-2,3,4,5-tetrahydro-pyrido[3,2-b][1,4]oxazepin-3-yl)-6-methyl-4-oxo-1-phenyl-1,4-dihydro-pyridazine-3-carboxamide] | 5590 nM
Cc1cc(=O)c(C(=O)N[C@@H]2C(=O)Nc3ncccc3O[C@@H]2C)nn1-c1ccccc1 [Example 80, 6-methyl-N-((2R,3S)-2-methyl-4-oxo-2,3,4,5-tetrahydropyrido[3,2-b]-[1,4]oxazepin-3-yl)-4-oxo-1-phenyl-1,4-dihydropyridazine-3-carboxamide] | 3710 nM
Cc1cc(=O)c(C(=O)NC2CCc3ccccc3-n3ccnc32)nn1-c1ccccc1 (centres unmarked) [Example 73, N-(5,6-dihydro-4H-benzo[f]imidazo[1,2-a]azepin-4-yl)-6-methyl-4-oxo-1-phenyl-1,4-dihydropyridazine-3-carboxamide] | 296 nM
Cc1c(Cl)c(=O)c(C(=O)N[C@H]2COc3cccnc3N(C)C2=O)nn1-c1ccccc1 [Example 74, (S)-5-chloro-6-methyl-N-(5-methyl-4-oxo-2,3,4,5-tetrahydropyrido[3,2-b]-[1,4]oxazepin-3-yl)-4-oxo-1-phenyl-1,4-dihydropyridazine-3-carboxamide] | 58.2 nM
Cc1ccc(-n2nc(C(=O)N[C@H]3COc4cccnc4N(C)C3=O)c(=O)cc2C)cc1F [Example 75, (S)-1-(3-fluoro-4-methylphenyl)-6-methyl-N-(5-methyl-4-oxo-2,3,4,5-tetrahydro-pyrido[3,2-b][1,4]oxazepin-3-yl)-4-oxo-1,4-dihydropyridazine-3-carboxamide] | 28.4 nM
